Tested on: BCL6 positive individuals
Assay: IVF ovum transfer or frozen embryo transfer after pretreatment
Assay type: in vivo
Conditions: pretreatment for two months prior to transfer, compared to no treatment, p<0.0001
Protocol: In vitro fertilized (IVF) ovum transfer or frozen embryo transfer was carried out in BCL6 positive individuals. There were three treatment groups: no treatment prior to transfer, laparoscopy with treatment of endometriosis prior to transfer and GnRH agonist suppression (Lupron) pretreatment for two months prior to transfer.

CCNC(=O)[C@@H]1CCCN1C(=O)[C@H](CCCNC(=N)N)NC(=O)[C@H](CC(C)C)NC(=O)[C@@H](CC(C)C)NC(=O)[C@H](Cc1ccc(O)cc1)NC(=O)[C@H](CO)NC(=O)[C@H](Cc1c[nH]c2ccccc12)NC(=O)[C@H](Cc1c[nH]cn1)NC(=O)[C@@H]1CCC(=O)N1 [Lupron, leuprolide acetate]
time to pregnancy: significantly better | transplantation rate: significantly better

Source: patent US11474105B2, “Methods and compositions for SIRT1 expression as a marker for endometriosis and subfertility” (The University of North Carolina at Chapel Hill, priority 2016, dated 2022)
